Assay results reported in patent publication US12077503B2, “Substituted cyclic amides and their use as herbicides” (FMC CORPORATION, priority 2015, dated 2024).

Assays:
Format in all cases: in vivo
[1] = system: barnyardgrass (Echinochloa crus-galli); experiment: Test A preemergence; conditions: for Plant response rating, Barnyardgrass: 125 g ai/ha; for Barnyardgrass plant response rating (0 to 100 scale, 0 is no effect, 100 is complete control): 500 g ai/ha, visual injury approx. 10 d
Summary of the method: (§1)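 Ratings of 0 (no effect) to 100 (complete control) come from visual comparison with untreated controls roughly 10 d after treatment. Test chemicals, formulated in a non-phytotoxic solvent mixture with surfactant, were applied either as a preemergence directed soil spray on seeded soil or postemergence to one- to two-leaf plants 2 to 10 cm tall.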

Kochia (Kochia scoparia) [2] = experiment: Test A preemergence; conditions: for Plant response rating, Kochia: 125 g ai/ha; for Kochia plant response rating (0 to 100 scale, 0 is no effect, 100 is complete control): 500 g ai/ha, visual injury approx. 10 d
Summary of the method: as §1

[3] = system: ragweed (common ragweed, Ambrosia elatior); experiment: Test A preemergence; conditions: for Plant response rating, Ragweed: 125 g ai/ha; for Ragweed plant response rating (0 to 100 scale, 0 is no effect, 100 is complete control): 500 g ai/ha, visual injury approx. 10 d
Summary of the method: as §1

[4] = system: giant foxtail (Setaria faberii); experiment: Test A preemergence; conditions: for Plant response rating, Foxtail, Giant: 125 g ai/ha; for Foxtail, Giant plant response rating (0 to 100 scale, 0 is no effect, 100 is complete control): 500 g ai/ha, visual injury approx. 10 d
Summary of the method: as §1

[5] = system: ryegrass, Italian (Italian ryegrass, Lolium multiflorum); experiment: Test A preemergence; conditions: for Plant response rating, Ryegrass, Italian: 125 g ai/ha; for Ryegrass, Italian plant response rating (0 to 100 scale, 0 is no effect, 100 is complete control): 500 g ai/ha, visual injury approx. 10 d
Summary of the method: as §1

[6] = system: pigweed (Amaranthus retroflexus); experiment: Test A preemergence; conditions: for Plant response rating, Pigweed: 125 g ai/ha; for Pigweed plant response rating (0 to 100 scale, 0 is no effect, 100 is complete control): 500 g ai/ha, visual injury approx. 10 d
[7] = system: barnyardgrass (Echinochloa crus-galli); experiment: Test A postemergence; conditions: for Barnyardgrass plant response rating: 125 g ai/ha, visual injury rating on 0 to 100 scale (0 no effect, 100 complete control), approx. 10 d; for Plant response rating, Barnyardgrass: 500 g ai/ha
Summary of the method: as §1

[8] = system: Galium (catchweed bedstraw, Galium aparine); experiment: Test A postemergence; conditions: for Galium plant response rating: visual injury rating on 0 to 100 scale (0 no effect, 100 complete control), approx. 10 d
Summary of the method: as §1

[9] = system: blackgrass (Alopecurus myosuroides); experiment: Test A postemergence; conditions: for Blackgrass plant response rating: 125 g ai/ha, visual injury rating on 0 to 100 scale (0 no effect, 100 complete control), approx. 10 d; for Plant response rating, Blackgrass: 500 g ai/ha
Summary of the method: as §1

[10] = system: wheat (Triticum aestivum); experiment: Test A postemergence; conditions: for Wheat plant response rating: visual injury rating on 0 to 100 scale (0 no effect, 100 complete control), approx. 10 d
Summary of the method: as §1

Kochia (Kochia scoparia) [11] = experiment: Test A postemergence; conditions: for Kochia plant response rating: visual injury rating on 0 to 100 scale (0 no effect, 100 complete control), approx. 10 d
Summary of the method: as §1

[12] = system: ragweed (common ragweed, Ambrosia elatior); experiment: Test A postemergence; conditions: for Ragweed plant response rating: visual injury rating on 0 to 100 scale (0 no effect, 100 complete control), approx. 10 d
Summary of the method: as §1

corn (Zea mays) = experiment: Test A postemergence; conditions: for Corn plant response rating: visual injury rating on 0 to 100 scale (0 no effect, 100 complete control), approx. 10 d
Summary of the method: as §1

[13] = system: giant foxtail (Setaria faberii); experiment: Test A postemergence; conditions: for Foxtail, Giant plant response rating: visual injury rating on 0 to 100 scale (0 no effect, 100 complete control), approx. 10 d
Summary of the method: as §1

[14] = system: ryegrass, Italian (Italian ryegrass, Lolium multiflorum); experiment: Test A postemergence; conditions: for Ryegrass, Italian plant response rating: visual injury rating on 0 to 100 scale (0 no effect, 100 complete control), approx. 10 d
Summary of the method: as §1

[15] = system: pigweed (Amaranthus retroflexus); experiment: Test A postemergence; conditions: for Pigweed plant response rating: visual injury rating on 0 to 100 scale (0 no effect, 100 complete control), approx. 10 d
Summary of the method: as §1

[16] = system: barnyardgrass (Echinochloa crus-galli); experiment: Test B flooded paddy test; conditions: Flood, 0 to 100 scale where 0 is no effect and 100 is complete control, 13 to 15 d
Summary of the method: (§2)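 Response scored visually against untreated controls, 0 = no effect and 100 = complete control, 13–15 d after treatment in the greenhouse. Compounds added to paddy water held 3 cm above soil surface. Treatment given at 2-leaf stage.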

[17] = system: sedge, umbrella (small-flower umbrella sedge, Cyperus difformis); experiment: Test B flooded paddy test; conditions: Flood, 0 to 100 scale where 0 is no effect and 100 is complete control, 13 to 15 d
Summary of the method: as §2

rice (Oryra sativa) = experiment: Test B flooded paddy test; conditions: Flood, 0 to 100 scale where 0 is no effect and 100 is complete control, 13 to 15 d
Summary of the method: as §2

[18] = system: ducksalad (Heteranthera limosa); experiment: Test B flooded paddy test; conditions: Flood, 0 to 100 scale where 0 is no effect and 100 is complete control, 13 to 15 d
Summary of the method: as §2

[19] = preemergence, 0 to 100 scale (0 no effect, 100 complete control)
[20] = postemergence, 0 to 100 scale, 0 no effect, 100 complete control
[21] = 500 g ai/ha, postemergence, 0 to 100 scale, 0 no effect, 100 complete control
[22] = Preemergence, visual injury after approximately 10 d, 0 to 100 scale where 0 is no effect and 100 is complete control
[23] = Postemergence, 500 g ai/ha, 0 to 100 scale where 0 is no effect and 100 is complete control
[24] = Postemergence, 0 to 100 scale where 0 is no effect and 100 is complete control
[25] = 125 g ai/ha, postemergence, visual rating after approx. 10 d, 0 to 100 scale (0 no effect, 100 complete control)

COc1c(F)ccc(NC(=O)C2C(=O)N(C)CC2c2cccc(OC(F)(F)C(F)F)c2)c1F (stereo not drawn) [Compound 430]
30: Plant response rating, Kochia (Kochia (Kochia scoparia) [2]; [19]) | Plant response rating, Ragweed [3, 19] | Plant response rating, Ragweed [12, 21] | Ryegrass, Italian plant response rating ([14]; 125 g ai/ha, postemergence) | Pigweed plant response rating ([15]; 125 g ai/ha, postemergence)
80: Plant response rating, Barnyardgrass [1, 19] | Barnyardgrass plant response rating ([7]; postemergence) | Foxtail, Giant plant response rating ([13]; 125 g ai/ha, postemergence) | Plant response rating, Foxtail, Giant [13, 21]
70: Kochia plant response rating (0 to 100 scale, 0 is no effect, 100 is complete control) (Kochia (Kochia scoparia) [2]; Preemergence) | Plant response rating, Blackgrass [9, 20] | Plant response rating, Corn (corn (Zea mays); [21])
100: Plant response rating, Ducksalad ([18]; 250 g ai/ha)
50: Ragweed plant response rating (0 to 100 scale, 0 is no effect, 100 is complete control) ([3]; Preemergence) | Ryegrass, Italian plant response rating (0 to 100 scale, 0 is no effect, 100 is complete control) ([5]; Preemergence) | Pigweed plant response rating (0 to 100 scale, 0 is no effect, 100 is complete control) ([6]; Preemergence) | Galium plant response rating ([8]; 125 g ai/ha, postemergence) | Plant response rating, Wheat [10, 21] | Plant response rating, Kochia (Kochia (Kochia scoparia) [11]; [21]) | Corn plant response rating (corn (Zea mays); 125 g ai/ha, postemergence) | Plant response rating, Ryegrass, Italian [14, 21] | Plant response rating, Pigweed [15, 21]
65: Plant response rating, Barnyardgrass ([16]; 250 g ai/ha)
60: Plant response rating, Galium [8, 21]
90: Barnyardgrass plant response rating (0 to 100 scale, 0 is no effect, 100 is complete control) ([1]; Preemergence) | Plant response rating, Foxtail, Giant [4, 19] | Foxtail, Giant plant response rating (0 to 100 scale, 0 is no effect, 100 is complete control) ([4]; Preemergence) | Plant response rating, Barnyardgrass [7, 20]
0: Plant response rating, Pigweed [6, 19] | Ragweed plant response rating ([12]; 125 g ai/ha, postemergence) | Plant response rating, Sedge, Umbrella ([17]; 250 g ai/ha)
20: Blackgrass plant response rating ([9]; postemergence) | Wheat plant response rating ([10]; 125 g ai/ha, postemergence) | Kochia plant response rating (Kochia (Kochia scoparia) [11]; 125 g ai/ha, postemergence) | Plant response rating, Rice (rice (Oryra sativa); 250 g ai/ha)
40: Plant response rating, Ryegrass, Italian [5, 19]

CC(C)=CCN1CC(c2cccc(C(F)(F)F)c2)C(C(=O)Nc2cccc(F)c2F)C1=O (stereo not drawn) [Compound 477]
20: Plant response rating, Barnyardgrass [1, 19]
90: Barnyardgrass plant response rating (0 to 100 scale, 0 is no effect, 100 is complete control) ([1]; Preemergence) | Plant response rating, Foxtail, Giant [4, 19] | Foxtail, Giant plant response rating (0 to 100 scale, 0 is no effect, 100 is complete control) ([4]; Preemergence)
70: Plant response rating, Barnyardgrass [7, 20] | Plant response rating, Foxtail, Giant [13, 23]
40: Barnyardgrass plant response rating ([7]; postemergence) | Plant response rating, Wheat [10, 23] | Plant response rating, Corn (corn (Zea mays); [21]) | Foxtail, Giant plant response rating ([13]; 125 g ai/ha, postemergence)
30: Plant response rating, Blackgrass [9, 20]
0: Plant response rating, Kochia (Kochia (Kochia scoparia) [2]; [19]) | Kochia plant response rating (0 to 100 scale, 0 is no effect, 100 is complete control) (Kochia (Kochia scoparia) [2]; Preemergence) | Plant response rating, Ragweed [3, 22] | Ragweed plant response rating (0 to 100 scale, 0 is no effect, 100 is complete control) ([3]; Preemergence) | Plant response rating, Ryegrass, Italian [5, 22] | Ryegrass, Italian plant response rating (0 to 100 scale, 0 is no effect, 100 is complete control) ([5]; Preemergence) | Plant response rating, Pigweed [6, 22] | Pigweed plant response rating (0 to 100 scale, 0 is no effect, 100 is complete control) ([6]; Preemergence) | Galium plant response rating ([8]; 125 g ai/ha, postemergence) | Plant response rating, Galium [8, 23] | Blackgrass plant response rating ([9]; postemergence) | Wheat plant response rating ([10]; 125 g ai/ha, postemergence) | Kochia plant response rating (Kochia (Kochia scoparia) [11]; 125 g ai/ha, postemergence) | Plant response rating, Kochia (Kochia (Kochia scoparia) [11]; [23]) | Ragweed plant response rating ([12]; 125 g ai/ha, postemergence) | Plant response rating, Ragweed [12, 23] | Corn plant response rating (corn (Zea mays); 125 g ai/ha, postemergence) | Ryegrass, Italian plant response rating ([14]; 125 g ai/ha, postemergence) | Plant response rating, Ryegrass, Italian [14, 23] | Pigweed plant response rating ([15]; 125 g ai/ha, postemergence) | Plant response rating, Pigweed [15, 23] | Plant response rating, Barnyardgrass ([16]; 250 g ai/ha) | Plant response rating, Sedge, Umbrella ([17]; 250 g ai/ha) | Plant response rating, Rice (rice (Oryra sativa); 250 g ai/ha) | Plant response rating, Ducksalad ([18]; 250 g ai/ha)

O=C1NCC(c2ccc(Oc3ccccc3)cc2)C1C(=O)Nc1ccccc1Cl (racemic) [Compound 538]
0: Plant response rating, Barnyardgrass [1, 22] | Barnyardgrass plant response rating (0 to 100 scale, 0 is no effect, 100 is complete control) ([1]; Preemergence) | Plant response rating, Kochia (Kochia (Kochia scoparia) [2]; [22]) | Kochia plant response rating (0 to 100 scale, 0 is no effect, 100 is complete control) (Kochia (Kochia scoparia) [2]; Preemergence) | Plant response rating, Ragweed [3, 22] | Ragweed plant response rating (0 to 100 scale, 0 is no effect, 100 is complete control) ([3]; Preemergence) | Plant response rating, Foxtail, Giant [4, 22] | Foxtail, Giant plant response rating (0 to 100 scale, 0 is no effect, 100 is complete control) ([4]; Preemergence) | Plant response rating, Ryegrass, Italian [5, 22] | Ryegrass, Italian plant response rating (0 to 100 scale, 0 is no effect, 100 is complete control) ([5]; Preemergence) | Plant response rating, Pigweed [6, 22] | Pigweed plant response rating (0 to 100 scale, 0 is no effect, 100 is complete control) ([6]; Preemergence) | Barnyardgrass plant response rating ([7]; postemergence) | Plant response rating, Barnyardgrass [7, 24] | Plant response rating, Galium [8, 25] | Plant response rating, Galium [8, 23] | Blackgrass plant response rating ([9]; postemergence) | Plant response rating, Blackgrass [9, 24] | Plant response rating, Wheat [10, 25] | Plant response rating, Wheat [10, 23] | Plant response rating, Kochia (Kochia (Kochia scoparia) [11]; [25]) | Plant response rating, Kochia (Kochia (Kochia scoparia) [11]; [23]) | Plant response rating, Ragweed [12, 25] | Plant response rating, Ragweed [12, 23] | Plant response rating, Corn (corn (Zea mays); [25]) | Plant response rating, Corn (corn (Zea mays); [23]) | Plant response rating, Foxtail, Giant [13, 25] | Plant response rating, Foxtail, Giant [13, 23] | Plant response rating, Ryegrass, Italian [14, 25] | Plant response rating, Ryegrass, Italian [14, 23] | Plant response rating, Pigweed [15, 25] | Plant response rating, Pigweed [15, 23] | Plant response rating, Barnyardgrass ([16]; 500 g ai/ha) | Plant response rating, Sedge, Umbrella ([17]; 500 g ai/ha) | Plant response rating, Rice (rice (Oryra sativa); 500 g ai/ha) | Plant response rating, Ducksalad ([18]; 500 g ai/ha)
